The subject of assay [1] is P388/ADR (adriamycine resistant cell line) murine leukemia. In words: Subrenal capsule implant of P388/ADR tumour fragments in mice, change in tumor size at day 7. The assay is classed as in vivo. To be noted: P388/ADR implants under renal capsule, monotherapy, daily intraperitoneal day 1 until day 6. An excerpt:
(§1) The potential of flunarizine as a potent enhancer of adriamycine (ADR) cytotoxicity in the murine sarcoma MO4 (semi-resistant cell line) "in vitro" and "in vivo" and its reversed adriamycine resistance in the P388/ADR (adriamycine resistant cell line) murine leukemia "in vivo"can be demostrated by the following procedure.
(§2) Fragments of subcutaneously grown tumours were inserted under the renal capsule in mice and their initial size measured under a microscope. At day 7, the mice were killed and the final size of the implants determined. The change in tumor size was expressed as a percentage of the initial size, the latter considered to be 100%. Daily intraperitoneal treatment with ADR alone or in combination with flunarizine which was formulated in hydroxypropyl-β-cyclodextrin was installed from day 1 until day 6. Control animals received the vehicle hydroxypropyl-ß-cyclodextrin.

Assay [2] concerns murine sarcoma MO4 (semi-resistant cell line). In words: Subrenal capsule implant of MO4 tumour fragments in mice, change in tumor size at day 7. The note with it: daily intraperitoneal day 1 until day 6. It counts as in vivo.
Source text: as §1, §2

As for `Fc1ccc(C(c2ccc(F)cc2)N2CCN(CC=Cc3ccccc3)CC2)cc1` [Flunarizine, 1-[bis(4-fluorophenyl)methyl]-4-(3-phenyl-2-propenyl)piperazine], the “effect on tumor growth” value in assay [1] is given as “no effect”; in assay [2] (MO4 implants under renal capsule, flunarizine monotherapy in hydroxypropyl-β-cyclodextrin, size at day 7) it was “no effect”.
Turning to `COc1cccc2c1C(=O)c1c(O)c3c(c(O)c1C2=O)C[C@@](O)(C(=O)CO)C[C@@H]3O[C@H]1C[C@H](N)[C@H](O)[C@H](C)O1` [adriamycine], the “effect on tumor growth” value is “inactive” in assay [1] and “no effect” in assay [2] (MO4-tumor, adriamycine alone, dosages lower than 2.5 mg/kg). Further, the growth reduction in assay [2] (MO4-tumor, adriamycine alone, half the maximal tolerated dose 2.5 mg/kg) came to 25%.
